Measurements taken from the NIST ThermoML archive (doi:10.1016/j.jct.2016.10.023).
Numbers after ± are expanded uncertainties.

Test: xn = mol fraction of the nth substance listed
Conditions: Constant-volume piezometry

For `CCCCC` [pentane] + CCCO, the mass density (393.15 K, 25038 kPa, Liquid, x1 = 0.5) was 629.68 ± 1.3 kg/m3, the mass density (393.15 K, 36012 kPa, Liquid, x1 = 0.8) was 598.57 ± 1.2 kg/m3 and the mass density (393.15 K, 44637 kPa, Liquid, x1 = 0.8) was 608.08 ± 1.2 kg/m3. The mass density (394.65 K, Liquid, x1 = 0.8) was 524.7 ± 3.2 kg/m3, the mass density (395.15 K, 1157 kPa, Liquid, x1 = 0.8) was 524.69 ± 1.1 kg/m3 and the mass density (396.15 K, Liquid, x1 = 0.2) was 640.78 ± 3.9 kg/m3. The mass density (398.15 K, 2324 kPa, Liquid, x1 = 0.8) was 524.59 ± 1.1 kg/m3, the mass density (403.15 K, 905 kPa, Gas, x1 = 0.8) was 22.65 ± 0.07 kg/m3 and the mass density (403.15 K, 4215 kPa, Liquid, x1 = 0.8) was 524.43 ± 1.1 kg/m3. For the same compound, the mass density (403.15 K, 4306 kPa, Liquid, x1 = 0.2) was 640.49 ± 1.3 kg/m3, the mass density (403.15 K, 5622 kPa, Liquid, x1 = 0.5) was 578.69 ± 1.2 kg/m3 and the mass density (403.15 K, 10647 kPa, Liquid, x1 = 0.5) was 591.27 ± 1.2 kg/m3. It also gave a mass density (403.15 K, 14687 kPa, Liquid, x1 = 0.8) of 552.29 ± 1.1 kg/m3, a mass density (403.15 K, 15313 kPa, Liquid, x1 = 0.2) of 662.74 ± 1.3 kg/m3 and a mass density (403.15 K, 15471 kPa, Liquid, x1 = 0.5) of 601.98 ± 1.2 kg/m3. It also gave a mass density (403.15 K, 19586 kPa, Liquid, x1 = 0.5) of 610.45 ± 1.2 kg/m3, a mass density (403.15 K, 25962 kPa, Liquid, x1 = 0.8) of 574.02 ± 1.2 kg/m3 and a mass density (403.15 K, 30841 kPa, Liquid, x1 = 0.5) of 629.25 ± 1.3 kg/m3. It also gave a mass density (403.15 K, 42147 kPa, Liquid, x1 = 0.8) of 598.16 ± 1.2 kg/m3, a mass density (410.15 K, Liquid, x1 = 0.8) of 499.43 ± 3 kg/m3 and a mass density (410.75 K, Liquid, x1 = 0.5) of 551.97 ± 3.3 kg/m3. It also gave a mass density (413.15 K, 944 kPa, Gas, x1 = 0.8) of 22.64 ± 0.07 kg/m3, a mass density (413.15 K, 2137 kPa, Liquid, x1 = 0.5) of 551.89 ± 1.1 kg/m3 and a mass density (413.15 K, 2268 kPa, Liquid, x1 = 0.8) of 499.34 ± 1 kg/m3. It also gave a mass density (413.15 K, 7884 kPa, Liquid, x1 = 0.8) of 524.12 ± 1.1 kg/m3, a mass density (413.15 K, 10313 kPa, Liquid, x1 = 0.5) of 578.32 ± 1.2 kg/m3 and a mass density (413.15 K, 10612 kPa, Liquid, x1 = 0.2) of 640.04 ± 1.3 kg/m3. It also gave a mass density (413.15 K, 15843 kPa, Liquid, x1 = 0.5) of 590.88 ± 1.2 kg/m3, a mass density (413.15 K, 19245 kPa, Liquid, x1 = 0.8) of 551.94 ± 1.1 kg/m3 and a mass density (413.15 K, 21025 kPa, Liquid, x1 = 0.5) of 601.58 ± 1.2 kg/m3. It also gave a mass density (413.15 K, 22059 kPa, Liquid, x1 = 0.2) of 662.26 ± 1.3 kg/m3, a mass density (413.15 K, 24988 kPa, Liquid, x1 = 0.5) of 610.04 ± 1.2 kg/m3 and a mass density (413.15 K, 31136 kPa, Liquid, x1 = 0.8) of 573.65 ± 1.2 kg/m3. It also gave a mass density (413.15 K, 36585 kPa, Liquid, x1 = 0.5) of 628.82 ± 1.3 kg/m3, a mass density (414.15 K, 712 kPa, Gas, x1 = 0.5) of 15.6 ± 0.05 kg/m3 and a mass density (415.15 K, 715 kPa, Gas, x1 = 0.5) of 15.6 ± 0.05 kg/m3. The mass density (415.75 K, Liquid, x1 = 0.2) was 618.67 ± 3.7 kg/m3, the mass density (416.15 K, 1229 kPa, Liquid, x1 = 0.2) was 618.66 ± 1.2 kg/m3 and the mass density (416.15 K, 1374 kPa, Gas, x1 = 0.8) was 36.88 ± 0.11 kg/m3. It also gave a mass density (423.15 K, 737 kPa, Gas, x1 = 0.5) of 15.59 ± 0.05 kg/m3, a mass density (423.15 K, 982 kPa, Gas, x1 = 0.8) of 22.63 ± 0.07 kg/m3 and a mass density (423.15 K, 1418 kPa, Gas, x1 = 0.8) of 36.86 ± 0.11 kg/m3. It also gave a mass density (423.15 K, 4884 kPa, Liquid, x1 = 0.2) of 618.37 ± 1.2 kg/m3, a mass density (423.15 K, 5404 kPa, Liquid, x1 = 0.8) of 499.05 ± 1 kg/m3 and a mass density (423.15 K, 5815 kPa, Liquid, x1 = 0.5) of 551.55 ± 1.1 kg/m3. It also gave a mass density (423.15 K, 11608 kPa, Liquid, x1 = 0.8) of 523.8 ± 1.1 kg/m3, a mass density (423.15 K, 14921 kPa, Liquid, x1 = 0.5) of 577.95 ± 1.2 kg/m3 and a mass density (423.15 K, 16915 kPa, Liquid, x1 = 0.2) of 639.59 ± 1.3 kg/m3. The mass density (423.15 K, 20842 kPa, Liquid, x1 = 0.5) was 590.5 ± 1.2 kg/m3, the mass density (423.15 K, 23598 kPa, Liquid, x1 = 0.8) was 551.59 ± 1.1 kg/m3 and the mass density (423.15 K, 26392 kPa, Liquid, x1 = 0.5) was 601.18 ± 1.2 kg/m3. It also gave a mass density (423.15 K, 28950 kPa, Liquid, x1 = 0.2) of 661.79 ± 1.4 kg/m3, a mass density (423.15 K, 30447 kPa, Liquid, x1 = 0.5) of 609.63 ± 1.2 kg/m3 and a mass density (423.15 K, 36411 kPa, Liquid, x1 = 0.8) of 573.27 ± 1.2 kg/m3. The mass density (425.55 K, Liquid, x1 = 0.8) was 469.31 ± 2.8 kg/m3, the mass density (426.15 K, 1900 kPa, Liquid, x1 = 0.8) was 469.29 ± 0.94 kg/m3 and the mass density (429.15 K, Liquid, x1 = 0.2) was 598.54 ± 3.6 kg/m3. It also gave a mass density (431.15 K, Liquid, x1 = 0.5) of 522.22 ± 3.1 kg/m3, a mass density (432.15 K, 2018 kPa, Liquid, x1 = 0.5) of 522.19 ± 1.1 kg/m3 and a mass density (433.15 K, 760 kPa, Gas, x1 = 0.5) of 15.59 ± 0.05 kg/m3. The mass density (433.15 K, 1023 kPa, Gas, x1 = 0.8) was 22.62 ± 0.07 kg/m3, the mass density (433.15 K, 1472 kPa, Gas, x1 = 0.8) was 36.85 ± 0.11 kg/m3 and the mass density (433.15 K, 2403 kPa, Liquid, x1 = 0.5) was 522.16 ± 1.1 kg/m3. For the same compound, the mass density (433.15 K, 3158 kPa, Liquid, x1 = 0.2) was 598.39 ± 1.2 kg/m3, the mass density (433.15 K, 3619 kPa, Liquid, x1 = 0.8) was 469.11 ± 0.95 kg/m3 and the mass density (433.15 K, 8493 kPa, Liquid, x1 = 0.8) was 498.76 ± 1 kg/m3. It also gave a mass density (433.15 K, 9460 kPa, Liquid, x1 = 0.5) of 551.22 ± 1.1 kg/m3, a mass density (433.15 K, 10196 kPa, Liquid, x1 = 0.2) of 617.96 ± 1.2 kg/m3 and a mass density (433.15 K, 15352 kPa, Liquid, x1 = 0.8) of 523.48 ± 1.1 kg/m3. The mass density (433.15 K, 19645 kPa, Liquid, x1 = 0.5) was 577.58 ± 1.2 kg/m3, the mass density (433.15 K, 23135 kPa, Liquid, x1 = 0.2) was 639.15 ± 1.3 kg/m3 and the mass density (433.15 K, 26095 kPa, Liquid, x1 = 0.5) was 590.11 ± 1.2 kg/m3. It also gave a mass density (433.15 K, 28096 kPa, Liquid, x1 = 0.8) of 551.24 ± 1.1 kg/m3 and a mass density (433.15 K, 31893 kPa, Liquid, x1 = 0.5) of 600.78 ± 1.2 kg/m3.
